Data taken from US4753951A, “Condensed imidazopyridine derivatives useful as psychotropic agents” (Shionogi & Co., Ltd., priority 1985, dated 1988).
Where two headings read alike, the source gives them in different places.

Key:
[1] = test system: Pentyleneterazole-Induced Convulsion; assay: Antagonism of Pentyleneterazole-Induced Convulsion (agonistic activity); assay type: in vivo, male mice; settings: Mus musculus; intravenous; mice; pentylenetetrazole 125 mg/kg, s.c.; 2-h observation; probit; read-out: ED50 (prevention of tonic convulsion and death)
Description: Antagonism of Pentyleneterazole-Induced Convulsion
(§1) Agonistic activity was evaluated in this test. Groups of 8-16 male mice were challenged with a dose of 125 mg/kg, s.c. of pentylenetetrazole immediately after intravenous injection of the test compound. The dose required to prevent tonic convulsion and death in 50% of the animal during a 2-h observation period was calculated by the probit method.

benzodiazepine receptor = assay: Binding Test to Benzodiazepine Receptor (inhibition of tritium labeled diazepam binding); set-up: species or system Wistar rats; settings: 2nM tritium labeled diazepam; rat cerebral cortex; 0° C., 6 minutes; calculated from IC50
Description: Binding Test to Benzodiazepine Receptor
This test was carried out in the modified mehtod of Mohler et al. Science, 198, 849-851 (1977).
Receptor preparation was provided from the cerebral cortex of Wistar rats (male, 11 to 13 weeks age). Inhibitory action of the test compound on the specific binding of tritium labeled diazepam to the receptor was evaluated as follows. 2nM tritium labeled diazepam and an aqueous solution of the test compound at 5 or 6 concentrations were incubated with the receptor preparation at 0° C. for 6 minutes. The 50% inhibitory concentration (IC50) was measured by the concentration-response curve.
The inhibitory constant (Ki) was calculated according to the following equation, in which Kd is the dissociation constant of the tritium labeled diazepam and L is the concentration of the labeled ligand.

conflict behavior = assay: Anticonflict Test; assay type: in vivo; settings: Rattus norvegicus; oral; male Wistar rats; 1 hour observation starting 30 minutes after administration; probit; read-out: Anti-conflict activity ED50
Description: The modified method of Geller and Seifter (Psychopharmacol, 1, 482, 1960) was employed. Groups of 5 or more male Wistar rats with well-established conflict behavior were used. A dose was determined as positive when the numbuer of electric shocks (punishment) exceeded more than 12 during a 1 hour observation period starting 30 minutes after oral administration of the test compound. The ED50 was calculated by the probit method.

[2] = test system: mice gripping the wire with hindpaws; assay: Traction Test; assay type: in vivo; settings: Mus musculus, 0.5 h, read-out: Traction Test ED50
Description: The modified method of Courvoisier et al. (in "Psychotropic Drugs", ed. by S. Garattini & R. Ducrot. p 373. Elsevier Publishing Co., Amsterdam, 1957) was employed. Groups of 10 mice were made to hang onto a horizontal metal wire (diameter: 1 mm) by grasping and holding with their forepaws 30 minutes after oral administration of the test compound, and the number of mice gripping the wire with hindpaws within 10 sec was counted. The ED50 was calculated by the probit method.

[3] = test system: Pentylenetetrazole-Induced Convulsion; assay: Potentiation of Pentylenetetrazole-Induced Convulsion (inverse agonist activity); assay type: in vivo; settings: Mus musculus; intravenous; mice; pentylenetetrazole 90 mg/kg s.c. (subconvulsive); 2-h observation; probit; read-out: ED50 (production of tonic convulsion and death)
Description: Potentiation of Pentylenetetrazole-Induced Convulsion
as §1, with “Inverse agonist” for “Agonistic”, “8-16” for “8-16 male”, “90 mg/kg.” for “125 mg/kg,”, “(a subconvulsive dose) immidiately” for “immediately”, “produce” for “prevent”, “animals” for “animal”

[4] = oral, mice, 30 minutes after administration, gripping within 10 sec, probit

SMILES	ED50 [1] [mg/kg]	Ki (benzodiazepine receptor) [nM]	also measured
Cc1csc(-c2nc3cnc4cc(Cl)ccc4c3[nH]2)c1 [Compound C38]	8.52	15.6	
CN1C(=O)CN=C(c2ccccc2)c2cc(Cl)ccc21 [Diazepam, reference compound]			ED50 (conflict behavior): 1.05 mg/kg; ED50 ([2]; po): 5.06 mg/kg
Clc1ccc(-c2nc3cnc4ccccc4c3[nH]2)s1 [Compound C2]	16	0.97	
Clc1ccc2c(c1)ncc1nc(-c3ccon3)[nH]c12 [Compound C59]	3.01	1.23	
Cc1cc(-c2nc3cnc4ccccc4c3[nH]2)no1 [Compound C61]	0.74	0.661	
COc1ccc(-c2nc3cnc4ccccc4c3[nH]2)cc1 [Compound C13]	4.61	8.73	
Cc1cc(-c2nc3cnc4ccc(F)cc4c3[nH]2)on1 [Compound C49]	0.32	0.237	ED50 (conflict behavior): 1.19 mg/kg; ED50 [2, 4]: > 200 mg/kg
Fc1ccc(-c2nc3cnc4ccccc4c3[nH]2)cc1 [Compound C3, 2-(4-fluorophenyl)-1H-imidazo[4,5-c]quinoline]	2.31	15.8	
c1csc(-c2nc3cnc4ccsc4c3[nH]2)c1 [Compound K5]		10.1	ED50 [3]: 0.54 mg/kg
Fc1cccc(-c2nc3cnc4ccccc4c3[nH]2)c1 [Compound C20]	3.9	27.7	
Cc1cc(-c2nc3cnc4ccccc4c3[nH]2)ns1 [Compound C67]		2.07	
c1csc(-c2nc3cnc4sccc4c3[nH]2)c1 [Compound F7]		725	ED50 [3]: 0.5 mg/kg
Clc1ccc2c(c1)ncc1nc(-c3cccs3)[nH]c12 [Compound C35]		19.5	ED50 [3]: 1.76 mg/kg
Cc1cc(-c2nc3cnc4ccccc4c3[nH]2)sn1 [Compound C68]		1.19	
CCc1cc(-c2nc3cnc4ccccc4c3[nH]2)on1 [Compound C46]	1.2	0.97	
c1ccc2c(c1)ncc1nc(-c3ccon3)[nH]c12 [Compound C58]		0.525	ED50 [3]: 1.65 mg/kg
Cc1cc2c(ncc3nc(-c4cccs4)[nH]c32)s1 [Compound F2, 2-(Thien-2-yl)-7-methyl-1H-imidazo[4,5-d]thieno[2,3-b]pyridine]		31.8	ED50 [3]: 0.13 mg/kg
c1ccc2c(c1)ncc1nc(-c3cnns3)[nH]c12 [Compound C70]		5.4	
Fc1ccc2c(c1)ncc1nc(-c3ccon3)[nH]c12 [Compound C60]		0.495	
Cc1cc(-c2nc3cnc4cc(F)ccc4c3[nH]2)on1 [Compound C48]	0.59	0.907	ED50 (conflict behavior): 1.8 mg/kg; ED50 [2, 4]: > 200 mg/kg
Cc1csc(-c2nc3cnc4ccccc4c3[nH]2)n1 [Compound C71]		4.57	ED50 [3]: 4.18 mg/kg
Cc1cc(-c2nc3cnc4ccccc4c3[nH]2)on1 [Compound C45, 2-(3-methylisoxazol-5-yl)-1H-imidazo[4,5-c]quinoline]	0.71	0.582	ED50 (conflict behavior): 2.68 mg/kg; ED50 [2, 4]: > 200 mg/kg
Fc1ccccc1-c1nc2cnc3ccccc3c2[nH]1 [Compound C21]	2.05	1.8	
